Data published in patent US10208066B2, “Imidazopyridazine compounds and their use” (HUTCHISON MEDIPHARMA LIMITED, priority 2014, dated 2019).

Key:
[1] = system: B cells (B220+) activation (CD86); experiment: Anti-IgD antibody induced B cells activation in rat whole blood, ex vivo after oral administration; parameters: species or system Wistar rats
Protocol: Activation of B cells (B220+) in rat whole, blood with anti-IgD antibody leading to activation via Ig receptors is known to involve PI3K pathways and sensitive to modulation by PI3Kδ inhibitors, A pharmacodynamics assay was developed to assess activity of PI3Kδ inhibitors ex vivo following oral administration of inhibitors to rats.
(§1) Wistar rats (female, 6-8 weeks old) were used in the experiments. The dose dependency, time course study and PKPD relationship of compound 4 were conducted in normal Wistar rats. […] The control group (6 rats) was treated with the vehicle alone. At designated time points (1 hour, 8 hours, 16 hours and 24 hours after administration), blood samples were collected from rats via retro-orbital bleeding under isofluorane anesthesia into heparinized tubes. The heparin anti-coagulated blood was mixed with anti-rat-IgD, then was incubated at 37° C. under 5% CO2 overnight. Fluorescence signal for CD86 on B220 (B cells) positive cells was detected using a flow cytometer (BD FACSCalibur, BD Biosciences) and data were analyzed by CellQuest software. Plasma was collected to measure compound 4 levels.

[2] = biological target: PI3K-α (p110α/p85α) (Homo sapiens (Human), UniProt P42336); experiment: Transcreener KINASE Assay, fluorescent determination of PI3K enzyme activity; type: biochemical; conditions: for inhibition at 1 µM: read-out: PI3K-α IH % (inhibition rate)
Chain of PI3K-α (p110α/p85α) (P42336 whole entry, species assumed): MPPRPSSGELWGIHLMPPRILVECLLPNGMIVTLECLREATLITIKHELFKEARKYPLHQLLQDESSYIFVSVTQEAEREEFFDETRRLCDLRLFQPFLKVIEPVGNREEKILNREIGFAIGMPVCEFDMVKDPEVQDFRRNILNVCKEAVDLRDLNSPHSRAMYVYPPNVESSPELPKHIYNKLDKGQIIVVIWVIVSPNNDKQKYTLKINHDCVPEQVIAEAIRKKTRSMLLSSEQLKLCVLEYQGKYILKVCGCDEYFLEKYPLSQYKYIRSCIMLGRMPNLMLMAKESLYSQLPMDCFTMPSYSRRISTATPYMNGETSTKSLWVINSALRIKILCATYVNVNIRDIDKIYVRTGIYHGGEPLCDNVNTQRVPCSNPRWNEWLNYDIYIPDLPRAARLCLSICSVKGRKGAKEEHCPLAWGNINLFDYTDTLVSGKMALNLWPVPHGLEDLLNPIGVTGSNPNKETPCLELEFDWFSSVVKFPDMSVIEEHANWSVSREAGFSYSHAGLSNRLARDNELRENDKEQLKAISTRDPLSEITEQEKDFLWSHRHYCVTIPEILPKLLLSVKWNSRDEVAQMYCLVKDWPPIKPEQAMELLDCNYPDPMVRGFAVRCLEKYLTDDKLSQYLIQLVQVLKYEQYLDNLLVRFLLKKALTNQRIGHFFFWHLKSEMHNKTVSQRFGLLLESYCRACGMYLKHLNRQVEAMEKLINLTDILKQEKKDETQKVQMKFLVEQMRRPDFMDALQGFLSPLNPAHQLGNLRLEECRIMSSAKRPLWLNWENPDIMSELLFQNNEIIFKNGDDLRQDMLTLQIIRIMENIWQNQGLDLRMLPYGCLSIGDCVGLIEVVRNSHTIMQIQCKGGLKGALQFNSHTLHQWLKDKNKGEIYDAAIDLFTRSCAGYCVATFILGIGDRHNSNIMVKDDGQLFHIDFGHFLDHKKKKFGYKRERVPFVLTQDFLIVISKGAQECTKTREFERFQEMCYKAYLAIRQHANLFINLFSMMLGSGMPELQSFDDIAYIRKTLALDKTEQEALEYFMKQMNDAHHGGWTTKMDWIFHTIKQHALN
Chain of PI3K-α (p110α/p85α) (P27986 whole entry partner, species assumed): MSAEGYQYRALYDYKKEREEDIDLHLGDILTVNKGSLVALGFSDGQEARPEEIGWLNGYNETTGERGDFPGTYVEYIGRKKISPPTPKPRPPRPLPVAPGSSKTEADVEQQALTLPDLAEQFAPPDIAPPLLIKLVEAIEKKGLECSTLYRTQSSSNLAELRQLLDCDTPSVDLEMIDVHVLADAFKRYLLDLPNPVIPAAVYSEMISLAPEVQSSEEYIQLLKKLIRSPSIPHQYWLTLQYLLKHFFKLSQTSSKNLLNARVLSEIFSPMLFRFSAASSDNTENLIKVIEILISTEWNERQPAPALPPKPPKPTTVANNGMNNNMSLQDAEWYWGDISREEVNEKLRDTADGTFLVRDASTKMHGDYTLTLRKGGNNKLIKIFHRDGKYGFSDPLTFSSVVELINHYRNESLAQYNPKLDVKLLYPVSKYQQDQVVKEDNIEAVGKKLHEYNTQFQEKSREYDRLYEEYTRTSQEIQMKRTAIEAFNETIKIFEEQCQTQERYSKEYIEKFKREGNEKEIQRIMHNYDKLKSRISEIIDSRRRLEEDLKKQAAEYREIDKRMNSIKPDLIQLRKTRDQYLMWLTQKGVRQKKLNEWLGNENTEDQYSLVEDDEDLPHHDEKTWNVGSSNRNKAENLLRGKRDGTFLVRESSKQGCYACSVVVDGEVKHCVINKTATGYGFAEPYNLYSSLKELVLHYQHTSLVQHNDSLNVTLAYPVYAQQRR
Protocol: Inhibition rates were calculated as follow: IH %=(ADP amount under 2% DMSO well−ADP amount under test compound well)/ADP amount under 2% DMSO well×100%.

[3] = Plasma levels of compound 4 after oral administration; type: in vivo, Wistar rats; conditions: dose range 0.01 mg/kg to 3 mg/kg
Protocol: as §1

[4] = system: AKT phosphorylation (p-AKT Ser473) in Ramos cells; experiment: Inhibition of AKT phosphorylation in Ramos cell line (anti-IgM stimulated); type: cell-based; conditions: Homo sapiens; Ramos cells, anti-IgM stimulation; read-out: IC50, inhibition of AKT phosphorylation
Protocol: 6×10^4/mL Ramos cells (ATCC, CRL-1596; cells were cultured in RPMI1640 media with 10% FBS) were seeded into a 96-well plate (Beckman Dickinson, No. 356692) at 80 uL/well, 4,800 cells/well. After incubation for 3 hr at 37° C. under 5% CO2, Ramos cells were treated with 10 uL/well various concentrations of test compound (final concentrations of the test compound: 1 uM, 0.3 uM, 0.1 uM, 0.037 uM, 0.012 uM, 0.0041 uM, 0.0014 uM and 0.0005 uM) or 0.3% DMSO for 30 min, and then were stimulated with 10 uL/well 1 ug/ml Anti-IgM (Jackson Immunoresearch, 709-006-073) for 15-20 min. • 1) Cells were fixed with 100 μL of 4% pre-warmed Paraformaldehyde (2% final concentration), and incubated for 45 min at room temperature. • 2) The paraformaldehyde solution was removed. 100 μL of ice-cold methanol was added into each well and the plate was left at 4° C. for 30 min. • 3) The cells were washed for three times with 160 μL PBS. • 4) 40 μL 1:350 dilution of Rabbit anti-p-AKT(Ser^473) antibody (Cell Signaling Technology, 4060L) in antibody dilution buffer (1% BSA, in PBS) were added into each well. The plate was inculpated overnight at 4° C. • 5) The cells were washed for 3 times with 160 uL PBS. • 6) 45 μL of Goat anti-rabbit IgG Alexa488 antibody (Invitrogen, A11034) at a 1:1,000 dilution in antibody dilution buffer (1% BSA, in PBS) were added into each well. The plate was covered with foil to keep out of light and was incubated for 90 min at room temperature. • 7) The cells were washed for 3 times with 160 uL PBS. • 8) 50 μL of 1.5 μM Propidium Iodide (Sigma: P4170) solution was added into each well to determine cell number (1.5 mM Propidium iodide stock was diluted with 1:1,000 in PBS, and the final concentration was 1.5 μM). • 9) The plate was incubated at room temperature for 30 min and then was sealed with a cover-seal. • 10) The plate was loaded into the Acumen Explorer and scan with the appropriate instrument settings.
(§2) Data was analyzed and IC50 values were generated using the add-in software for Microsoft Excel, Xlfit™ (version 5.3).

[5] = system: collagen-induced arthritis, paw volume; experiment: Rat collagen II induced arthritis (CIA) model; type: in vivo, Wistar rats
Protocol: Rat collagen induced arthritis is an experimental model of polyarthritis that has been widely used for nonclinical testing of numerous anti-arthritic agents that are either under nonclinical or clinical investigation or are currently used as therapeutics in this disease. […] Wistar rats were immunized intradermally with 200 μg bovine collagen H emulsified in Freund's incomplete adjuvant (IFA, Sigma. US) on day 0 and day 7. The hind paw volumes were measured before and after the immunization. […] The naive group was not administered. YiSaiPu (10 mg/kg), a human tumor necrosis factor receptor p75 Fc fusion protein, was administered with intraperitoneal injection on days 10, 12 and 14 as a positive control. The study was terminated on day 18.

[6] = biological target: PI3K-β (Homo sapiens, UniProt P42338); experiment: Transcreener KINASE Assay, fluorescent determination of PI3K enzyme activity; type: biochemical; conditions: for inhibition at 1 µM: read-out: PI3K-β IH % (inhibition rate);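 as to all read-outs here: recombinant PI3K enzyme reaction, 80 min at room temperature, ADP formed detected by far-red competitive fluorescence polarization immunoassay, inhibition relative to ADP in 2% DMSO control wells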
Chain of PI3K-β (P42338 whole entry, looked up): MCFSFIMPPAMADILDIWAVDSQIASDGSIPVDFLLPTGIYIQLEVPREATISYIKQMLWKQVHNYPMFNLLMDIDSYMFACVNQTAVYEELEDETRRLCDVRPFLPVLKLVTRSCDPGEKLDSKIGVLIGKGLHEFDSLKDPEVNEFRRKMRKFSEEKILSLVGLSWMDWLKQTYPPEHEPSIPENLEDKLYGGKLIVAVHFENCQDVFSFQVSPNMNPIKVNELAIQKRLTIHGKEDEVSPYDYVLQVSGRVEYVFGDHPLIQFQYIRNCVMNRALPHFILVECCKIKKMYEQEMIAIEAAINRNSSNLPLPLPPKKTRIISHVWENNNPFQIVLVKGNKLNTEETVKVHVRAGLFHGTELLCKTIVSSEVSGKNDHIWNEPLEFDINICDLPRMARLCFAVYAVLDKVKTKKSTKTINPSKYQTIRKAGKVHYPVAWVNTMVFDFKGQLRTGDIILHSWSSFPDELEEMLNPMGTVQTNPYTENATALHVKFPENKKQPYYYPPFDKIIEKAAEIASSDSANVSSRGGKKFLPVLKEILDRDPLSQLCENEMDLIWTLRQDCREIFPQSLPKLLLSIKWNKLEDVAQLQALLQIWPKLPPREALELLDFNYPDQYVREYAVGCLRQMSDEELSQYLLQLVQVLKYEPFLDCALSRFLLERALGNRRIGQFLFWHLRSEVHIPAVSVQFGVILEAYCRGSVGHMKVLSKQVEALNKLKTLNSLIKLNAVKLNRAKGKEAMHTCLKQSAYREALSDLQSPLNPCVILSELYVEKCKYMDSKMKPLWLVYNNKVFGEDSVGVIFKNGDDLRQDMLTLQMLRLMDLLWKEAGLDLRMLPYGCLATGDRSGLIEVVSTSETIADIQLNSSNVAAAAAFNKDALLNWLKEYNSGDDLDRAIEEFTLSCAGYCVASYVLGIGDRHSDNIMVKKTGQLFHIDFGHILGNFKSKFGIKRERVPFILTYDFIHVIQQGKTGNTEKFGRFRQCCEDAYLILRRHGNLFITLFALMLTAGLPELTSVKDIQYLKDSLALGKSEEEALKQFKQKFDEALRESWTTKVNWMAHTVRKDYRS
Protocol: (§3) It is a universal, homogenous, high throughput screening (HTS) technology using a far-red, competitive fluorescence polarization immunoassay based on the detection of ADP to monitor the activity of enzymes that catalyze group transfer reactions. […] The reaction mixture was added into desired wells of a 96-well plate. The plate was sealed and incubated for 80 min at room temperature. • 2) Next, 25 uL ADP detection mix was added into each well. The plate was sealed again and incubated for 60 min at room temperature. Then fluorescence polarization was measured by Tecan Infinite F500 Reader.
as §2

[7] = system: SU-DHL-6 cells; experiment: In vitro cell proliferation assay in SU-DHL-6 cell line (CCK-8); type: cell-based; conditions: Homo sapiens, SU-DHL-6, 72 h
Protocol: Growth inhibition assays were carried out using 10% FBS supplemented media. Cells were seeded at a concentration of 15000 cells/well in a 96 well plate. Test compound dilution at different concentrations (final concentrations of the test compound: 1 uM, 0.3 uM, 0.1 uM, 0.037 uM, 0.012 uM, 0.0041 uM, 0.0014 uM and 0.0005 uM) were added after 24 hours. Growth was assessed using Cell Counting Kit-8 (CCK-8) (Dojindo, Cat#CK04) after the test compound were incubated for 72 h. Absorbance was read at the wave length 450 nm on Multiskan MK3 machine (Thermo).
as §2

[8] = system: PI3Kδ signaling in basophils; experiment: Inhibition of PI3Kδ signaling in basophils from human whole blood; type: cell-based; conditions: human whole blood, anti-human IgE stimulation, CD63; read-out: IC50, inhibition of PI3Kδ signaling in basophils
Protocol: Methods • 1) Heparinized human whole blood was mixed and pipetted into the 96 well v-bottom plate, 100 μL per well. • 2) 10 μL of stimulation buffer (1 mg/mL stock, final concentration of Recombinant human IL-3: 20 ng/mL) was added to the whole blood samples of each well and vortex gently. […] Vortex all the wells once more and incubate for 20 min at 37° C. • 5) Labeling with staining antibody: Degranulation was stopped by incubating the samples on ice for 5 min. 6 μL of staining antibody mixture (anti-CD63-FITC and anti-IgE-PE) was added into each well. Vortex and incubate the wells for 20 min in an ice bath, covered to prevent exposure to light. • 6) The whole blood samples were lysed with 300 uL RBC lysis (pre-warmed to room temperature, 20 to 25° C.). Vortex and incubate the samples for 15 min at room temperature. Spin down cells (5 min, 250×g, 4° C.). The supernatant was aspirated leaving approximately 100 μL in each well. • 7) The blood samples were lysed once more as step 6). • 8) Washing: The samples are washed once with 0.5 mL of washing solution. The plate was centrifuged (5 min, 250×g, 4° C.). The supernatant was aspirated leaving approximately 100 μL in each well. The sample in each well was washed and centrifuged once more as above. • 9) 200 μL of fixing solution (1% papraledehyde in 1% BSA/PBS) was added into each well.
as §2

[9] = biological target: PI3K-γ (p110γ) (Homo sapiens (Human), UniProt P48736); experiment: Transcreener KINASE Assay, fluorescent determination of PI3K enzyme activity; type: biochemical;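 also: ADP produced by p110γ kinase reaction, 80 min at room temperature, detected by far-red fluorescence polarization immunoassay, inhibition relative to 2% DMSO control wells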
Chain of PI3K-γ (p110γ) (P48736 whole entry, species assumed): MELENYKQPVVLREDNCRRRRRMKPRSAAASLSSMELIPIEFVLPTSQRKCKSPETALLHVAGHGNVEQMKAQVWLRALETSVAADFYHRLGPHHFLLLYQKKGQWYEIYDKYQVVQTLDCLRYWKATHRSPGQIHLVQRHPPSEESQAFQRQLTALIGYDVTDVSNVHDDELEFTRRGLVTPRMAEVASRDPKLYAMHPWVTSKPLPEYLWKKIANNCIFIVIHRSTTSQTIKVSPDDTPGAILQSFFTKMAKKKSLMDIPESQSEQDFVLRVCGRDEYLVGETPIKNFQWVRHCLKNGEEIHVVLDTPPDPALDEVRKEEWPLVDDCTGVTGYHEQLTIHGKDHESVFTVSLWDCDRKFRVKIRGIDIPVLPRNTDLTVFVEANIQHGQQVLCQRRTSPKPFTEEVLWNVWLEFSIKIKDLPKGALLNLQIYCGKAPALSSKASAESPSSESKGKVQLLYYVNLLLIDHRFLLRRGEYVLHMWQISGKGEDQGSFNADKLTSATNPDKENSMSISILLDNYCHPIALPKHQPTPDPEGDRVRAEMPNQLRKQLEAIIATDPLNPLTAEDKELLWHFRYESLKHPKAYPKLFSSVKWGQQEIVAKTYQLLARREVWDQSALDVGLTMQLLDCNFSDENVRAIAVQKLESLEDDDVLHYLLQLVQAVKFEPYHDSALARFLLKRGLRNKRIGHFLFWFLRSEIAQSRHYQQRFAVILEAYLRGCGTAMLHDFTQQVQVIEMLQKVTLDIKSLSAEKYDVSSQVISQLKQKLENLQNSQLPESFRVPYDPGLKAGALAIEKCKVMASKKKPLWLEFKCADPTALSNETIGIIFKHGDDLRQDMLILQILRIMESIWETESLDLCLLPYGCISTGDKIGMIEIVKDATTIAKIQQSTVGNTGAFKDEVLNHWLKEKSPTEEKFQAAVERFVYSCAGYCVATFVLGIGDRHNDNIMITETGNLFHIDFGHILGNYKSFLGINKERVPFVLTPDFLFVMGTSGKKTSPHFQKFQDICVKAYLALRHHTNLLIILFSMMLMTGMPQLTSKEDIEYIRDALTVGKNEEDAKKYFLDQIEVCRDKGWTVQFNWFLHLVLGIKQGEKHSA
Protocol: as §3, §2

[10] = biological target: PI3K-δ (p110δ/p85α) (Homo sapiens (Human), UniProt O00329); experiment: as above; type: biochemical;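 also: ADP formed by the kinase detected via far-red competitive fluorescence polarization immunoassay after 80 min room-temperature reaction, inhibition relative to 2% DMSO wells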
Chain of PI3K-δ (p110δ/p85α) (O00329 whole entry, species assumed): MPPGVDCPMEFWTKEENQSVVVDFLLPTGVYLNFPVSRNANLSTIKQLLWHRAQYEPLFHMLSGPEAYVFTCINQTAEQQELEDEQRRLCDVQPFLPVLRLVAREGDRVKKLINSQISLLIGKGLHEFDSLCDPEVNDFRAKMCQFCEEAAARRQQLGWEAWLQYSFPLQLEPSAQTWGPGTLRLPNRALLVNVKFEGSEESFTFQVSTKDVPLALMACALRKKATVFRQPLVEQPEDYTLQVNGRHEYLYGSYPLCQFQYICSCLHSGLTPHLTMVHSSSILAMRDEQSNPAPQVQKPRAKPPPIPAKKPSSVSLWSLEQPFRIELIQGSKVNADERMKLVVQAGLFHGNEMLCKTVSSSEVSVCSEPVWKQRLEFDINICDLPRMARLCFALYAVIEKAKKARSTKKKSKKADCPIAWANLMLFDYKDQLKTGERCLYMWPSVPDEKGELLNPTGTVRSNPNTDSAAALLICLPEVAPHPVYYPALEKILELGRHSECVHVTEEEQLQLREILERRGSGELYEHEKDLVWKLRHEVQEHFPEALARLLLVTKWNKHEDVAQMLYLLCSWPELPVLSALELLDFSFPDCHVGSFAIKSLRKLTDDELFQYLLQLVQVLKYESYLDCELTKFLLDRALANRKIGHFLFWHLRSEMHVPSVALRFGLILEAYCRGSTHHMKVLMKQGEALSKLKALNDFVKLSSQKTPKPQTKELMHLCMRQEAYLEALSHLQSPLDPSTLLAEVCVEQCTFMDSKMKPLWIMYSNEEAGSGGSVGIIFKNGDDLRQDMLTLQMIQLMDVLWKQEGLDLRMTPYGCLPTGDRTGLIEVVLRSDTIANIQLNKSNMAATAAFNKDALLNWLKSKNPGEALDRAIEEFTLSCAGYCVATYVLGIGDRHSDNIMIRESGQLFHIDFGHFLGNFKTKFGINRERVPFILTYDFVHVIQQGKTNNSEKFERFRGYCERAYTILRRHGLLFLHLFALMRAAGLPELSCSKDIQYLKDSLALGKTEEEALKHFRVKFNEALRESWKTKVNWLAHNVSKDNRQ
Chain of PI3K-δ (p110δ/p85α) (P27986 whole entry partner, species assumed): as the sequence (P27986 whole entry partner, species assumed) above

Compound | ED50 ([1]; Rattus norvegicus, B-cell, at 2 hr post-dose, oral) | inhibition at 0.1 mg/kg ([1]; Rattus norvegicus, B-cell, single oral 0.1 mg/kg dose, up to 24 hr) | anti-IgD induced B cell activation in rat whole blood, ex vivo ([1]; oral, dose range 0.01 to 3 mg/kg, p<0.01) | IC50 [2] | Plasma levels [3] | IC50 [4] | mean paw volume at end of treatment vs vehicle-treated diseased animals ([5]; PO QD 7 days, p<0.01 except at lowest dose 0.03 mg/kg) | effects on parameters associated with established type II collagen-induced arthritis ([5]; daily oral treatment) | IC50 [6] | IC50 [7] | IC50 [8] | IC50 [9] | IC50 [10] | inhibition at 1 µM [6] | inhibition at 1 µM [2]
C[C@H](Nc1ncnc(N)c1C#N)c1cc2ncc(Cl)n2nc1-c1ccccc1 [Compound 4, (S)-4-amino-6-((1-(3-chloro-6-phenylimidazo[1,2-b]pyridazin-7-yl)ethyl)amino)pyrimidine-5-carbonitrile] | < 0.01 mg/kg | > 90% | inhibited anti-IgD induced B cell activation | > 1000 nM | dose-proportional | 2 nM | significantly decreased | dose-dependent beneficial effects |  |  |  |  |  |  | 
C[C@H](Nc1ncnc2[nH]cnc12)c1cc2ncc(Cl)n2nc1-c1ccccc1F [Compound 13] |  |  |  | > 1000 nM |  | 4 nM |  |  | 1920 nM | 11 nM | 10 nM | 484 nM | 3 nM |  | 
C[C@H](Nc1ncnc(N)c1C#N)c1cc2ncc(Cl)n2nc1-c1cccc(F)c1 [Compound 15] |  |  |  | > 1000 nM |  | 0.5 nM |  |  |  | 2 nM | 2 nM | 393 nM | 1 nM | 59% | 
Cc1cnc2cc([C@H](C)Nc3ncnc(N)c3C#N)c(-c3ccccc3)nn12 [Compound 22] |  |  |  |  |  | 4 nM |  |  |  | 19 nM | 2 nM | 322 nM | 2 nM | 76.7% | 13.6%
Cc1cnc2cc([C@H](C)Nc3ncnc4[nH]cnc34)c(-c3ccccc3)nn12 [Compound 23] |  |  |  |  |  | 12 nM |  |  |  | 78 nM | 6 nM | 343 nM | 6 nM | 28.7% | 3.2%
